Values quoted from earlier work in patent publication US20070059740A1, “METHOD OF TARGETING A2B ADENOSINE RECEPTOR ANTAGONIST THERAPY” (priority 2005, published 2007).

Test system: Zucker rats
Conditions: A2B adenosine receptor antagonist, reported by LaNoue et al., U.S. Pat. No. 6,060,481

In the case of `CCCn1c(=O)c2[nH]c(-c3ccc(C=CC(=O)O)cc3)nc2n(CCC)c1=O` [1,3-dipropyl-8-(p-acrylic)-phenylxanthine], the glucose tolerance is given as “improves glucose tolerance”.
